Assay results published in the NIST ThermoML archive (doi:10.1016/j.jct.2006.07.015).

Assays:
[1] = xn = mol fraction of the nth substance listed; conditions: 298.15 K, 101 kPa, Liquid; for viscosity: Capillary tube (Ostwald / Ubbelohde) method; for speed of sound: Sing-around technique in a fixed-path interferometer; for mass density: Vibrating tube method
[2] = 298.15 K, 101.33 kPa, Liquid; for viscosity: Capillary tube (Ostwald / Ubbelohde) method; for speed of sound: Sing-around technique in a fixed-path interferometer; for mass density: Vibrating tube method

ClC(Cl)=C(Cl)Cl [tetrachloroethene] + CCCCCCCO
[1]
Conditions | mass density [kg/m3] | speed of sound [m/s] | viscosity [mPa·s]
x2 = 0 | – | 1039 | –
x2 = 0.093 | 1514.31 | – | –
x2 = 0.0967 | – | 1050 | –
x2 = 0.102 | – | – | 0.995
x2 = 0.1957 | – | 1069 | –
x2 = 0.1994 | 1409 | – | –
x2 = 0.2118 | – | – | 1.222
x2 = 0.2492 | – | 1082 | –
x2 = 0.2498 | – | – | 1.32
x2 = 0.2502 | 1361.6 | – | –
x2 = 0.2952 | – | 1093 | –
x2 = 0.2986 | 1318.1 | – | –
x2 = 0.3015 | – | – | 1.457
x2 = 0.3905 | – | 1120 | –
x2 = 0.3979 | 1233.3 | – | –
x2 = 0.3997 | – | – | 1.795
x2 = 0.4452 | 1194.85 | – | –
x2 = 0.4667 | – | 1142 | –
x2 = 0.4983 | 1153.02 | – | –
x2 = 0.4998 | – | – | 2.24
x2 = 0.5478 | – | – | 2.485
x2 = 0.5495 | 1114.05 | – | –
x2 = 0.5531 | – | 1169 | –
x2 = 0.587 | – | – | 2.703
x2 = 0.5894 | – | 1178 | –
x2 = 0.5995 | 1077.22 | – | –
x2 = 0.6488 | 1042 | – | –
x2 = 0.6507 | – | 1200 | –
x2 = 0.6969 | 1008.69 | – | –
x2 = 0.6995 | – | – | 3.451
x2 = 0.7002 | – | 1217 | –
x2 = 0.74 | – | – | 3.742
x2 = 0.7932 | 944.69 | – | –
x2 = 0.7954 | – | – | 4.184
x2 = 0.7989 | – | 1252 | –
x2 = 0.8497 | 908.83 | – | –
x2 = 0.8969 | – | 1290 | –
x2 = 0.8985 | – | – | 5.06
x2 = 0.8986 | 878.72 | – | –

ClC(Cl)=C(Cl)Cl [tetrachloroethene]
[2]
Conditions | mass density [kg/m3] | speed of sound [m/s] | viscosity [mPa·s]
– | 1614.49 | 1039 | 0.847

CC1CCCCC1 [methylcyclohexane] + CCCCCCCO
Conditions | speed of sound [m/s]
[1], x2 = 0 | 1215

CCCCCCCO [heptan-1-ol]
[2]
Conditions | mass density [kg/m3] | speed of sound [m/s] | viscosity [mPa·s]
– | 818.77 | 1329 | 6.041

CC1CCCCC1 [methylcyclohexane]
[2]
Conditions | mass density [kg/m3] | speed of sound [m/s] | viscosity [mPa·s]
– | 764.99 | 1209 | 0.684

CCCCCCCO [heptan-1-ol] + ClC(Cl)=C(Cl)Cl
Conditions | speed of sound [m/s]
[1], x1 = 1 | 1329

ClC(Cl)=C(Cl)Cl [tetrachloroethene] + CC1CCCCC1
[1]
Conditions | mass density [kg/m3] | speed of sound [m/s] | viscosity [mPa·s]
x1 = 0.0999 | – | – | 0.69
x1 = 0.1007 | 834.38 | – | –
x1 = 0.1924 | 900.06 | – | –
x1 = 0.2 | 905.67 | – | –
x1 = 0.2068 | – | – | 0.698
x1 = 0.2439 | – | 1184 | –
x1 = 0.2504 | 942.96 | – | –
x1 = 0.2505 | – | – | 0.701
x1 = 0.2982 | – | – | 0.705
x1 = 0.3011 | 981.34 | – | –
x1 = 0.3029 | 982.75 | – | –
x1 = 0.3944 | – | – | 0.716
x1 = 0.4001 | 1058.76 | – | –
x1 = 0.4173 | – | 1156 | –
x1 = 0.4897 | – | 1146 | –
x1 = 0.4996 | – | – | 0.728
x1 = 0.5009 | 1141.4 | – | –
x1 = 0.5494 | – | 1136 | –
x1 = 0.5503 | 1183.38 | – | –
x1 = 0.5984 | 1225.08 | – | –
x1 = 0.6016 | – | – | 0.746
x1 = 0.6496 | 1270.62 | – | –
x1 = 0.6549 | – | 1116 | –
x1 = 0.7007 | – | – | 0.765
x1 = 0.7014 | 1317.87 | – | –
x1 = 0.7372 | – | 1098 | –
x1 = 0.7786 | – | 1089 | –
x1 = 0.7995 | 1410.5 | – | –
x1 = 0.8008 | – | – | 0.789
x1 = 0.8104 | – | 1082 | –
x1 = 0.8418 | – | 1075 | –
x1 = 0.8489 | 1458.9 | – | –
x1 = 0.8693 | – | 1069 | –
x1 = 0.8986 | 1508.67 | – | –
x1 = 0.8996 | – | – | 0.816
x1 = 0.9188 | – | 1057 | –
x1 = 1 | – | 1039 | –

CC1CCCCC1 [methylcyclohexane] + ClC(Cl)=C(Cl)Cl
Conditions | speed of sound [m/s]
[1], x2 = 0 | 1215

CCCCCCCO [heptan-1-ol] + CC1CCCCC1
[1]
Conditions | mass density [kg/m3] | speed of sound [m/s] | viscosity [mPa·s]
x1 = 0.1 | 770.2 | – | –
x1 = 0.1009 | – | – | 0.797
x1 = 0.1031 | – | 1217 | –
x1 = 0.1506 | 773.03 | – | –
x1 = 0.2001 | 775.76 | – | –
x1 = 0.2007 | – | – | 0.956
x1 = 0.2024 | – | 1225 | –
x1 = 0.3006 | – | 1236 | –
x1 = 0.3011 | 781.37 | – | 1.174
x1 = 0.4 | 786.91 | – | –
x1 = 0.4011 | – | – | 1.461
x1 = 0.4033 | – | 1247 | –
x1 = 0.449 | 789.61 | – | –
x1 = 0.4501 | – | – | 1.64
x1 = 0.4973 | – | 1259 | –
x1 = 0.4985 | – | – | 1.839
x1 = 0.5002 | 792.45 | – | –
x1 = 0.5394 | – | 1264 | –
x1 = 0.5497 | 795.18 | – | –
x1 = 0.5999 | 797.98 | – | –
x1 = 0.6026 | – | 1273 | –
x1 = 0.6033 | – | – | 2.384
x1 = 0.6503 | 800.71 | – | –
x1 = 0.7007 | 803.42 | – | –
x1 = 0.7045 | – | 1287 | –
x1 = 0.7417 | – | – | 3.369
x1 = 0.7972 | – | 1300 | –
x1 = 0.7985 | – | – | 3.875
x1 = 0.8 | 808.68 | – | –
x1 = 0.8495 | 811.24 | – | –
x1 = 0.8951 | – | 1315 | –
x1 = 0.8998 | 813.8 | – | –
x1 = 0.9006 | – | – | 4.922
x1 = 1 | – | 1329 | –
